Patent US20250025439A1, “DERIVATIVES OF NIFUROXAZIDE FOR USE IN THE TREATMENT OF MITOCHONDRIAL DISORDERS AND NEURODEGENERATIVE DISEASES” (priority 2021, published 2025)

How the values were obtained:
Format in all cases: cell-based, human
[1] = tested on: CHCHD10^S59L/+ fibroblasts; experiment: Mitochondrial network analysis after KIF5B siRNA transfection; details: patient cells, NFX 5 μM, 72 h
Procedure: (§1) Cells were incubated with MitoTracker red (Invitrogen) as previously described (Genin et al., EMBO Mol. Med., 2016, 8, 58-72). Fibroblasts were plated on a glass slide in a 60 mm dish. For the mitochondrial staining, the fibroblasts were incubated with MitoTracker Red (Invitrogen) (100 nM) during 15 minutes at 37° C. Then the medium was replaced by fresh medium for two hours at 37° C. The cells were fixed using Paraformaldehyde (Electron Microscopy Science) (4%) diluted in medium, 20 minutes at 37° C. The cells were then washed with PBS and mounted with Prolong Gold Antifade Reagent (Molecular Probes). The slides were analysed using a confocal microscope (Zeiss LSM 880). […] The images were deconvoluted with Huygens Essential Software™ (Scientific Volume Imaging) using a theoretically calculated point spread function (PSF) for each of the dyes. All selected images were iteratively deconvolved with maximum iterations scored 40 and a quality threshold at 0.05. The deconvolved images were used for quantitative mitochondrial network analysis with Huygens Essentiel Software™ with the following standardised set of parameters: threshold=15% and seed=10% for each cell types and garbage=10. The quantitative data were further analysed in Microsoft Excel and GraphPad Prism 8 (GraphPad Software). Mitochondrial network length was quantified for 30 randomly-selected individual cells. […]

[2] = tested on: Mic60 and Miro1; experiment: Proximity ligation assay Mic60/Miro1; details: patient fibroblasts, NFX 5 μM
Procedure: Fibroblasts were seeded in 16-well Lab-Tek chambers slides (Nunc). For mitochondrial staining, cells were incubated in a 100 nM solution of MitoTracker Red CMXRos (Invitrogen) for 15 min. Cells were fixed with PFA 4% for 20 min at 37° C. and permeabilised with 2% Triton X-100 for 10 min. Then coverslips were saturated with 5% BSA for 45 min at RT. All antibodies were diluted with PBS-BSA 5%. Fibroblasts were incubated in the presence of convenient couple of primary antibodies for 1 h at RT. After PBS washes, incubation with appropriate PLA probe (PLA probe anti rabbit MINUS, PLA probe anti mouse PLUS), hybridization, ligation and amplification were done using the DuoLink In Situ Detection Reagents Green (Olink Biosciences) following manufacturer's instructions. Finally, the samples were mounted on glass slides using Prolong Gold Antifade Reagent (Molecular Probes). Images were captured with a ZEISS LSM 880 confocal laser-scanning microscope and analyzed using Huygens Essential Software™ (Scientific Volume Imaging). Data are represented as mean±SEM. Negative control experiments (with one antibody omitted) were performed in parallel and checked to result in the absence of PLA signal (FIG. 1). […]

[3] = tested on: CHCHD10^S59L/+ fibroblasts; experiment: Mitochondrial network analysis after STAT3 siRNA transfection; details: STAT3 siRNA transfected fibroblasts
Procedure: as §1

[4] = tested on: patient fibroblasts; experiment: Electron microscopy of mitochondrial morphology in fibroblasts; details: 72 h after treatment
Procedure: Cells were seeded on 24 wells/plate, fixed with 1.6% glutaraldehyde in 0.1 M cacodylate buffer (pH 7.4) for 2 hours, rinsed and postfixed in 1% osmium tetroxide and 1% potassium ferrocyanide in 0.1 M cacodylate buffer before to processed for ultrastructure as previously described (Bannwarth et al., Brain, 2014, 137, 2329-2345). The protocol for contrasting sections was slightly modified, using a 5% Lanthanide salt solution (a mixture of Gadolinium acetate and Samarium acetate) for 7 minutes instead of uranium acetate. The cells were examined under a JEOL 1400 transmission electron microscope. The ultrastructure of mitochondria was classified in three categories. Normal: the mitochondria have numerous, parallel and well organized cristae. Intermediary: the mitochondria have less cristae, they show few round or swollen cristae or have a mild disorganisation. Abnormal: the mitochondria have swollen, disorganized or no cristae. More than 100 mitochondria were classified per condition. Nifuroxazide (46494-100MG Sigma) was resuspended in DMSO at 50 mM and stocked at −20° C. For each treatment, the Nifuroxazide was diluted in complete medium (Dulbecco's Modified Eagle Medium supplemented with 10% FBS, penicillin (100 U/mL) and streptomycin (0.1 mg/mL)) at the desired concentration. […] 72 h hours after treatment, the cells were analysed.

[5] = tested on: STAT3; experiment: Western blot of STAT3 expression after treatment; details: patient and control fibroblasts, NFX 1 or 5 μM, 72 h
Procedure: The concentration of proteins was determined using the Pierce BCA assay kit (Thermo Fisher Scientific). 20 μg of total protein extracts were separated on acrylamide-SDS gels and transferred to PVDF membranes (Millipore). Signals were detected using a chemoluminescence system (Immobilon Western HRP Chemilumiscent substrates, Millipore). ImageJ was used to quantify protein signals. Nifuroxazide (46494-100MG Sigma) was resuspended in DMSO at 50 mM and stocked at −20° C. For each treatment, the Nifuroxazide was diluted in complete medium (Dulbecco's Modified Eagle Medium supplemented with 10% FBS, penicillin (100 U/mL) and streptomycin (0.1 mg/mL)) at the desired concentration. The cell medium was discarded and replaced by the medium with Nifuroxazide. 72 h hours after treatment, the cells were analysed.

Compound: O=C(N/N=C/c1ccc([N+](=O)[O-])o1)c1ccc(O)cc1 [NFX, (E)-4-hydroxy-N′-((5-nitrofuran-2-yl)methylene)benzohydrazide]
- effect on the mitochondrial network after inactivation of KIF5B [1]: no longer has an effect
- number of PLA spots Mic60/Miro1 [2]: significant increase
- effect on mitochondrial network length after STAT3 depletion [3]: without preventing the positive effect
- mitochondrial morphology and cristae shape (EM) [4]: improved
- STAT3 protein level [5]: dose-dependent decrease
- pSTAT3Y705 protein level [5]: dose-dependent decrease
